pIC50: −log10 of the molar value.
Legend:
PC-9 = assay: Antiproliferative activity against human PC-9 cells measured after 48 hrs by MTT assay; format: functional, cell-based; details: PC-9, 48 h
HCC827 = assay: Antiproliferative activity against human HCC827 cells measured after 48 hrs by MTT assay; format: functional, cell-based; details: HCC827, 48 h
[1] = molecular target: Phosphatidylinositol 4,5-bisphosphate 3-kinase catalytic subunit alpha isoform (Homo sapiens, UniProt P42336)
Description: Inhibition of PI3Kalpha (unknown origin) using PIP2 as substrate measured after 1 hr in presence of ATP by ADP-glo luminescence assay

[2] = molecular target: Phosphatidylinositol 4,5-bisphosphate 3-kinase catalytic subunit gamma isoform (Homo sapiens, UniProt P48736); assay: Inhibition of PI3K gamma (unknown origin) using PIP2 as substrate measured after 1 hr in presence of ATP by ADP-glo luminescence assay
[3] = molecular target: Serine/threonine-protein kinase mTOR (Homo sapiens, UniProt P42345); assay: Inhibition of mTOR (unknown origin) using ULight-4E-BP1 as substrate measured after 45 mins in presence of ATP by Lance ultra assay
[4] = molecular target: Phosphatidylinositol 4,5-bisphosphate 3-kinase catalytic subunit beta isoform (Homo sapiens, UniProt P42338); assay: Inhibition of PI3Kbeta (unknown origin) using PIP2 as substrate measured after 1 hr in presence of ATP by ADP-glo luminescence assay
[5] = molecular target: T1, Phosphatidylinositol 4,5-bisphosphate 3-kinase catalytic subunit delta isoform (Homo sapiens, UniProt O00329); assay: Inhibition of PI3K delta (unknown origin) using PIP2 as substrate measured after 1 hr in presence of ATP by ADP-glo luminescence assay
T1 sequence (O00329 whole entry): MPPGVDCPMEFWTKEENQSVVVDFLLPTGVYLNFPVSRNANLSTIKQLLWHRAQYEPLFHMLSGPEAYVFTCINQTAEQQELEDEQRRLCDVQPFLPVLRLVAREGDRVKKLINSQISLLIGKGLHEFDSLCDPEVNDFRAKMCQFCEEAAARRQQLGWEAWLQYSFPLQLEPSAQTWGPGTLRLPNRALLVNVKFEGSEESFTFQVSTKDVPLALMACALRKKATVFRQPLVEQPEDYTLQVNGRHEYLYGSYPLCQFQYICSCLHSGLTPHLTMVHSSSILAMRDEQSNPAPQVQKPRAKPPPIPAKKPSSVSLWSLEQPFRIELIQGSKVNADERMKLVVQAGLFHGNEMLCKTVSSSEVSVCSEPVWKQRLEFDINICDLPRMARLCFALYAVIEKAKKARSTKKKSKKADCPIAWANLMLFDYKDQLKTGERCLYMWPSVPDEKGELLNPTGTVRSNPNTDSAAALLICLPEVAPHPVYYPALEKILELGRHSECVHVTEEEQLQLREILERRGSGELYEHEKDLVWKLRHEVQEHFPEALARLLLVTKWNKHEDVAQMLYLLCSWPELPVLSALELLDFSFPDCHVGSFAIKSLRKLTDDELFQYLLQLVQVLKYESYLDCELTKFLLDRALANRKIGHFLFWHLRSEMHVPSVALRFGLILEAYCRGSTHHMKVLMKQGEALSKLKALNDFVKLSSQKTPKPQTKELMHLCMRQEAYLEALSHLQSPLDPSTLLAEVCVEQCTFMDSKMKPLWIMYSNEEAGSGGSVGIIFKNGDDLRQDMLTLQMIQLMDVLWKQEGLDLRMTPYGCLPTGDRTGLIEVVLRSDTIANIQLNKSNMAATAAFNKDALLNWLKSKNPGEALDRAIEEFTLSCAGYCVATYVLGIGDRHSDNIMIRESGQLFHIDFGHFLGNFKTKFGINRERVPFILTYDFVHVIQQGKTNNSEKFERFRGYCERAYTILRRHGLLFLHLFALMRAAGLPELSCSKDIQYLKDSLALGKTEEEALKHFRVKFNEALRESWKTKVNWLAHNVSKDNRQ

[6] = Toxicity in 8 hrs fasted ICR mouse assessed as effect on blood glucose level at 20 mg/kg, iv measured upto 240 mins by glucometer analysis; format: organism-based; details: in vivo, 4 h
[7] = Toxicity in nude male Balb/c mouse assessed as effect on body weight at 20 mg/kg, po administered daily for 2 weeks; format: organism-based; details: in vivo, 336 h
CYP3A4 = CYP3A4 (Homo sapiens, UniProt P08684); assay: Inhibition of CYP3A4 (unknown origin) at 10 uM relative to control; format: ADME
CYP2C9 = CYP2C9 (Homo sapiens, UniProt P11712); assay: Inhibition of CYP2C9 (unknown origin) at 10 uM relative to control; format: ADME
CYP2D6 = CYP2D6 (Homo sapiens, UniProt P10635); assay: Inhibition of CYP2D6 (unknown origin) at 10 uM relative to control; format: ADME
hERG (KCNH2) = hERG (KCNH2) (Homo sapiens, UniProt Q12809); assay: Inhibition of human ERG at 20 uM relative to control; format: toxicity
CYP1A2 = molecular target: T2, CYP1A2 (Homo sapiens, UniProt P05177); assay: Inhibition of CYP1A2 (unknown origin) at 10 uM relative to control; format: ADME
T2 sequence (P05177 whole entry): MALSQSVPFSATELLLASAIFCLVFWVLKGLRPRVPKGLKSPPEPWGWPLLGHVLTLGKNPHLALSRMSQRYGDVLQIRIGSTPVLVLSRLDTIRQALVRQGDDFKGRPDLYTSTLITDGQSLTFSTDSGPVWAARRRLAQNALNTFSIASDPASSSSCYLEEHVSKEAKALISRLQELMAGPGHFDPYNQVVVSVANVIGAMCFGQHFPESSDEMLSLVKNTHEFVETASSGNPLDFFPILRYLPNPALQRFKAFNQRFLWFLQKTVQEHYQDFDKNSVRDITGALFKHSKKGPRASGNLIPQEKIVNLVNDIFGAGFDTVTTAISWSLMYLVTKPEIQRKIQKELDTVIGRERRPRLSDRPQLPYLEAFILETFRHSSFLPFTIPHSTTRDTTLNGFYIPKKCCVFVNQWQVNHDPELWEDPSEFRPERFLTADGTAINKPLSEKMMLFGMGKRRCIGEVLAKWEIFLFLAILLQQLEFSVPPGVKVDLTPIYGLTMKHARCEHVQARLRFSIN

Sequence of Phosphatidylinositol 4,5-bisphosphate 3-kinase catalytic subunit gamma isoform (P48736 whole entry, canonical isoform): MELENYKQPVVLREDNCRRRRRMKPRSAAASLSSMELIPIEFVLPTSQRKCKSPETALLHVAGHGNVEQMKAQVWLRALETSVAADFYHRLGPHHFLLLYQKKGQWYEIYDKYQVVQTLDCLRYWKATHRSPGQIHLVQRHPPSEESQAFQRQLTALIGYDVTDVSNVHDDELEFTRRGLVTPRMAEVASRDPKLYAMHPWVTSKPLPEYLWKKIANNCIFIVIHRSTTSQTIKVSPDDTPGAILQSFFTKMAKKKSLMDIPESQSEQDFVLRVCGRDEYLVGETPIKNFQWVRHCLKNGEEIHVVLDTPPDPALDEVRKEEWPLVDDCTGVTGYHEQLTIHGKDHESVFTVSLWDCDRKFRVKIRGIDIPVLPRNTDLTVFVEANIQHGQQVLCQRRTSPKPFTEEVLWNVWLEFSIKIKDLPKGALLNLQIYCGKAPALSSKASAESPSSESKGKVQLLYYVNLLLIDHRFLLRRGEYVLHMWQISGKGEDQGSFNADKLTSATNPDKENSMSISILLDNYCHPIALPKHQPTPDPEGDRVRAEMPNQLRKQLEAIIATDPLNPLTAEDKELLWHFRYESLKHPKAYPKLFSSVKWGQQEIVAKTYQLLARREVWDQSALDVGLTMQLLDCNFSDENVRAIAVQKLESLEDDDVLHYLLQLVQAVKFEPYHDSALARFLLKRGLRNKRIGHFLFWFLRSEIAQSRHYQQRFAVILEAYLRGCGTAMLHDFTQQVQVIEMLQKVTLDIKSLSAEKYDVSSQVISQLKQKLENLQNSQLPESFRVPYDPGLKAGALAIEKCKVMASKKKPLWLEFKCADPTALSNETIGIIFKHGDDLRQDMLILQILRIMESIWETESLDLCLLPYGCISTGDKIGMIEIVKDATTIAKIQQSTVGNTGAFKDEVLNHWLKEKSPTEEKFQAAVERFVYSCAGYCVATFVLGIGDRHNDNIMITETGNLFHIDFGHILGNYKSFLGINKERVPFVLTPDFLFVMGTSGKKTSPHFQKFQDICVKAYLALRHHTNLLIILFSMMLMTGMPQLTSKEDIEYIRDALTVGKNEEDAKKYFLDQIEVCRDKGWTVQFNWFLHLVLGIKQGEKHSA
Sequence of Phosphatidylinositol 4,5-bisphosphate 3-kinase catalytic subunit alpha isoform (P42336 whole entry, canonical isoform): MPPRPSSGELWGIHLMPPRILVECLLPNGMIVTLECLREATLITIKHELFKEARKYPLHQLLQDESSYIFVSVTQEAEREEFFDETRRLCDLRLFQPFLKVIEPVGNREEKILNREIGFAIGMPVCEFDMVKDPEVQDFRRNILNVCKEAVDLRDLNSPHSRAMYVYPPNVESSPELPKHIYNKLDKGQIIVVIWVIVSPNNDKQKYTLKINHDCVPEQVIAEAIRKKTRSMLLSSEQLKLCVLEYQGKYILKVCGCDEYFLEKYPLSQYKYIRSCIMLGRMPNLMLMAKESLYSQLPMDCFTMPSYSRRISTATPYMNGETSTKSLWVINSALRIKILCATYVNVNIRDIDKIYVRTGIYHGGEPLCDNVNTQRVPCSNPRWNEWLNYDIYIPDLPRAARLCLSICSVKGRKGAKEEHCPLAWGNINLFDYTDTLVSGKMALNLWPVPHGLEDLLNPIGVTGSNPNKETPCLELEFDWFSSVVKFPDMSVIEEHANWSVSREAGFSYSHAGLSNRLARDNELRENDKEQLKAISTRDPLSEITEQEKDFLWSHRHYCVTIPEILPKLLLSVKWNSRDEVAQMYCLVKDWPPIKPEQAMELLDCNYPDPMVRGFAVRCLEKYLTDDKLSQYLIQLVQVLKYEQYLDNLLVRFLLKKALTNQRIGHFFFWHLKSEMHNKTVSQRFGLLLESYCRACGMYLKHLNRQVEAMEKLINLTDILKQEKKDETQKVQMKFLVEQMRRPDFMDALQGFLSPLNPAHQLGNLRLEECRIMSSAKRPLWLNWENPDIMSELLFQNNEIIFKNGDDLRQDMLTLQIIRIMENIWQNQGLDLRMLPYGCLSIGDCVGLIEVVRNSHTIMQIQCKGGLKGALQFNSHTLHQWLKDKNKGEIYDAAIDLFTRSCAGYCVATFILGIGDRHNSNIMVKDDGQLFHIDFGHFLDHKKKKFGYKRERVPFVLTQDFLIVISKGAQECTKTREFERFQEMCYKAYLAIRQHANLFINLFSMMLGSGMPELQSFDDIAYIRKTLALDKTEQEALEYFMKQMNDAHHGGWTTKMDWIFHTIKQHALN
Sequence of Phosphatidylinositol 4,5-bisphosphate 3-kinase catalytic subunit beta isoform (P42338 whole entry, canonical isoform): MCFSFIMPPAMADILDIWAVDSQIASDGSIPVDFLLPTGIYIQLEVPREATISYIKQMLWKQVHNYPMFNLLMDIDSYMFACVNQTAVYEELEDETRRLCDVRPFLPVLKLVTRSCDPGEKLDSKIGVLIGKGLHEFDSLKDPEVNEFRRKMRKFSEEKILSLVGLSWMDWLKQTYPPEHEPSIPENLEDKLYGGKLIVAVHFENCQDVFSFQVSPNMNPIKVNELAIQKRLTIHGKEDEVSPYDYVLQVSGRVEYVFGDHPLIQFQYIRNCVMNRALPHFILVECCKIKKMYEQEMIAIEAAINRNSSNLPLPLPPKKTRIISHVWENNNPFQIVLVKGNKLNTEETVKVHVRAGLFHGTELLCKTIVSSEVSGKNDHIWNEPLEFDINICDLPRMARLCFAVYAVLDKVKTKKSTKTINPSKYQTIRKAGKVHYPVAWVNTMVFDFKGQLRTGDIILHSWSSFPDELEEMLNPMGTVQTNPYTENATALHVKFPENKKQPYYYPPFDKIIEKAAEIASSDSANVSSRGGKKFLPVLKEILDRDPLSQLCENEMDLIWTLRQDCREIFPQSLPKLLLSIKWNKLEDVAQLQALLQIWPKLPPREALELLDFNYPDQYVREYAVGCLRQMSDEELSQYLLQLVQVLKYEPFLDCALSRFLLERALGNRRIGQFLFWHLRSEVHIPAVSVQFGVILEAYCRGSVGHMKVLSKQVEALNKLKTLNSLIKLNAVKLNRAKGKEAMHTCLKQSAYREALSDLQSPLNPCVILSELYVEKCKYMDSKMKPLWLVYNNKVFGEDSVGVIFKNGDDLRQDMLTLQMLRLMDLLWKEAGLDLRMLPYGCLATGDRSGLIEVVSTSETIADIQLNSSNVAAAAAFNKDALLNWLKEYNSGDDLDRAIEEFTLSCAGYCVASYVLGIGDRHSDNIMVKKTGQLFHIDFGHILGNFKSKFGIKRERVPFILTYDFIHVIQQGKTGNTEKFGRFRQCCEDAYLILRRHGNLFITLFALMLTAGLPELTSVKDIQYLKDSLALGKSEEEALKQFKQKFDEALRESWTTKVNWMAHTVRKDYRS
Sequence of hERG (KCNH2) (Q12809 whole entry): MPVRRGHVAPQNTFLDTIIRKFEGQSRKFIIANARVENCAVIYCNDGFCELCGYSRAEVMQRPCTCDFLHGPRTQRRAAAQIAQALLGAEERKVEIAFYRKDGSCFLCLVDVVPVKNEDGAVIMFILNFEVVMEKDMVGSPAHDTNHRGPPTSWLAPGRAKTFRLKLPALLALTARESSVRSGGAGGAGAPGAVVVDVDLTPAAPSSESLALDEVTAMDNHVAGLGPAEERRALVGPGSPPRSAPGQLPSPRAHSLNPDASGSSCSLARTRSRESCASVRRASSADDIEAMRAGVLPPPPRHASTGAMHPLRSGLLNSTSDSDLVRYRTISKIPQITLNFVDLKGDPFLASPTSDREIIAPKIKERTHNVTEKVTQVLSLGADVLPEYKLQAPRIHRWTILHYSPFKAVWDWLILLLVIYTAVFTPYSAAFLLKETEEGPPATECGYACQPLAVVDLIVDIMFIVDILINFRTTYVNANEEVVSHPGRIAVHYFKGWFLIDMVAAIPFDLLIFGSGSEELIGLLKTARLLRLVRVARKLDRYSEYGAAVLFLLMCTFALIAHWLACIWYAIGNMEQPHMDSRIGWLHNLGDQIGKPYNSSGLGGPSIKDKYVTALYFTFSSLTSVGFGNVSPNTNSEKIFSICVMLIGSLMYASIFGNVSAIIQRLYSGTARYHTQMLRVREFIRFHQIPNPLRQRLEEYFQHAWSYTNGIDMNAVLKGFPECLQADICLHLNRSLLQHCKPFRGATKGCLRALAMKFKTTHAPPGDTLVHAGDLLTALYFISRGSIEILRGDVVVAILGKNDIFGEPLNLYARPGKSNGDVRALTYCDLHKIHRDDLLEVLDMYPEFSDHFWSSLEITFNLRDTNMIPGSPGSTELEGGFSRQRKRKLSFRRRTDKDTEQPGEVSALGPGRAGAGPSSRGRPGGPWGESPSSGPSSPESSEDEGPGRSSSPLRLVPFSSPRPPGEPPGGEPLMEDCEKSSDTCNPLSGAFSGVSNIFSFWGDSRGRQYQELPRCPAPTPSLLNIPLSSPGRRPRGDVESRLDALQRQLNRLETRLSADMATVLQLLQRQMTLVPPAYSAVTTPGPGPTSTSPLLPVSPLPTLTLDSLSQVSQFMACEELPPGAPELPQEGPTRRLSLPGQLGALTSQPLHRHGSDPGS
Sequence of CYP3A4 (P08684 whole entry): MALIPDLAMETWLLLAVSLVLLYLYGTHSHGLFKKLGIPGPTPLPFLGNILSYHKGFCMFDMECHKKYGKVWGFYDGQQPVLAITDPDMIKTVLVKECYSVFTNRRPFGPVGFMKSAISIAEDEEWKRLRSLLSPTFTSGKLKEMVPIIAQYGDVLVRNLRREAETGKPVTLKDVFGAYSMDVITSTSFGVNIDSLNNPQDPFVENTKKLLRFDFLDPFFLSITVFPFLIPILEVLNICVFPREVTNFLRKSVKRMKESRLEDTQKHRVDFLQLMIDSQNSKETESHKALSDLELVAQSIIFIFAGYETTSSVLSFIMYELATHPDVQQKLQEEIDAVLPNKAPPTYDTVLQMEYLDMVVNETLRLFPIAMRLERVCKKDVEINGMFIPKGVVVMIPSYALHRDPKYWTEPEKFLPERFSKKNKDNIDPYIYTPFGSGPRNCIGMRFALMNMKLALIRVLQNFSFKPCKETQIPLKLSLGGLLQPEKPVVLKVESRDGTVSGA

Row | pIC50 [1] | pIC50 [2] | pIC50 [3] | pIC50 [4] | pIC50 [5] | Structure (SMILES) | further results
1 | – | 9.07 | – | – | – | COc1ncc(-c2ccc3nccc(-c4ccnnc4)c3c2)cc1NS(=O)(=O)c1ccc(F)cc1F [OMIPALISIB] | –
2 | – | 7.49 | 8.31 | 7.37 | 7.47 | O=C(Nc1ccc(C(=O)N2CCC[C@@H]2CO)cc1)Nc1ccc(-c2nc(N3CCOCC3)nc(N3CCOCC3)n2)cc1 | –
3 | – | 8.32 | 8.54 | 8.96 | 8.03 | O=C(Nc1ccc(C(=O)N2CCC[C@H]2CO)cc1)Nc1ccc(-c2nc(N3CCOCC3)nc(N3CCOCC3)n2)cc1 | inhibition at 10 µM (CYP3A4): 20%; inhibition at 10 µM (CYP2C9): 15%; inhibition at 10 µM (CYP2D6): 25%; inhibition at 20 µM (hERG (KCNH2)): 15%; inhibition at 10 µM (CYP1A2): 10%

More lines, now with the values behind:

Row | Structure (SMILES) | pIC50 [1] | pIC50 [2] | pIC50 [3] | pIC50 [4] | pIC50 [5] | further results
4 | O=C(c1ccc(NC(=S)Nc2ccc(-c3nc(N4CCOCC4)nc(N4CCOCC4)n3)cc2)cc1)N1CCCC(CO)C1 (stereo unspecified) | 7.44 | – | – | – | – | pIC50 (PC-9): 5.36; pIC50 (HCC827): 5.70
5 | CN1CCN(C(=O)c2ccc(NC(=S)Nc3ccc(-c4nc(N5CCOCC5)nc(N5CCOCC5)n4)cc3)cc2)CC1 | – | 6.18 | 6.90 | 6.77 | 6.47 | –
6 | O=C(c1ccc(NC(=S)Nc2ccc(-c3nc(N4CCOCC4)nc(N4CCOCC4)n3)cc2)cc1)N1CCCCC1CO (stereo unspecified) | 7.15 | – | – | – | – | –
7 | CN(C)C1CCN(C(=O)c2ccc(NC(=O)Nc3ccc(-c4nc(N5CCOCC5)nc(N5CCOCC5)n4)cc3)cc2)CC1 [GEDATOLISIB] | – | – | – | – | – | Activity [6]: Toxic; Activity [7]: Non-toxic
8 | O=C(c1ccc(NC(=S)Nc2ccc(-c3nc(N4CCOCC4)nc(N4CCOCC4)n3)cc2)cc1)N1CCN(C(=O)C2CCCO2)CC1 (stereo unspecified) | 7.69 | – | – | – | – | pIC50 (PC-9): 4.49; pIC50 (HCC827): 4.70
9 | O=C(c1ccc(NC(=S)Nc2ccc(-c3nc(N4CCOCC4)nc(N4CCOCC4)n3)cc2)cc1)N1CCC[C@H]1CO | – | 6.91 | 7.61 | 7.45 | 6.97 | –

— ChEMBL document CHEMBL6121003, “Design, synthesis, and pharmacological evaluation of triazine-based PI3K/mTOR inhibitors for the potential treatment of non-small cell lung cancer” (Eur J Med Chem, 2025)
